Assay results from paper PMC11513924, “Addressing the Intracellular Vestibule of the Plasmodial Lactate Transporter PfFNT by p-Substituted Inhibitors Amplifies In Vitro Activity” (Journal of Medicinal Chemistry, 2024).
Where two headings read alike, the source gives them in different places.

How the values were obtained:
[1] = molecular target: T1, PfFNT (Plasmodium falciparum, UniProt O77389); test: Fluorescence cross-correlation spectroscopy (FCCS) competition binding to solubilized PfFNT-GFP
T1 construct: expressed in transfected cells; membranes solubilized
T1 sequence (O77389 1-309): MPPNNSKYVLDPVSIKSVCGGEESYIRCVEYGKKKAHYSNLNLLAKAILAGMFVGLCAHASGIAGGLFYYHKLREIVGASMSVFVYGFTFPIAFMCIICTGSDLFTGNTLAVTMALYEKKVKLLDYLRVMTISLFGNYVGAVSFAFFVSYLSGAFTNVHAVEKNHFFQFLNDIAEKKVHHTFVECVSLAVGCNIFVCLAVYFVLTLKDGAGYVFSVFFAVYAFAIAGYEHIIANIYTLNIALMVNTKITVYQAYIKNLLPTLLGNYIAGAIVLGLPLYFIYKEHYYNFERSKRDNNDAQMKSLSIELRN
Experimental: FCCS measurements were conducted and analyzed as before.[20],[30] Briefly, membranes of stably transfected cells expressing PfFNT with a C-terminal GFP (green) were solubilized. BH267.meta 2 fused with DY647 (red) was used as a tracer to monitor the binding of compounds in a competition assay. Assays were done in […] glass bottom plates (cat. no. PS96B-G175, SWISSCI, Switzerland) using a plate reader (Insight, Evotec Technologies, Germany) fitted with a U-Apo300 40× water immersion lens, NA 1.15 (Olympus, Japan). Excitation was done with an argon-ion laser (488 nm) and a helium–neon laser (633 nm). Fluorescence fluctuations were recorded 10 times for 5 s per sample and fitted using FCS+ plus Analyze (PerkinElmer software). Initially, IC50 values were determined from the concentration of the dual labeled complex titrated against a competitor in a range of 100 pM to 100 μM (Figure S1). Then, Ki values were calculated using the Cheng Prusoff equation[31] based on the previously determined KD value for the BH267.meta-DY647 tracer.[20]

[2] = molecular target: T1, PfFNT; test: Yeast-based PfFNT 14C-lactate transport assay; assay type: cell-based
Experimental: Lactate transport functionality of PfFNT was assayed as described before.[4] Briefly, Saccharomyces cerevisiae W303-1A jen1Δady2Δcells[32] (MATa, can1-100, ade2-loc, his3-11-15, leu2-3,-112, trp1-1-1, ura3-1, jen1::kanMX4, ady2::hphMX4) kindly provided by M. Casal expressing PfFNT was grown at 29 °C to an OD600 of 1 (±0.1). Harvested cells were resuspended to an OD600 of 50 (±5) in 50 mM HEPES/Tris, pH 6.8 (±0.1). 10–15 min prior to the assay, 80 μL of yeast suspension were added to 1 μL of DMSO with or without inhibitor in a 1.5 mL reaction tube at 18 °C. Twenty μL of L-lactate solution spiked with [1-^14C]-L-lactate (Hartmann Analytic) was added yielding a 1 mM inward gradient with 0.04 μCi label. Transport was stopped after 30 s by abrupt dilution with 1 mL of ice-cold water, vacuum filtration via GF/C filter membranes (Whatman), and washing with 7 mL of ice-cold water. The radio label was analyzed by liquid scintillation counting in 3 mL of scintillation cocktail (Rotiszint eco plus, Carl Roth) using a Packard TriCarb 2900 TR (PerkinElmer Inc.).
(§1) Transport assays in yeast were done in triplicate biological replicates. At least nine technical replicates were measured around the IC50 value, concentrations with no or full inhibition were determined from at least three technical replicates. EC50-values were determined from 2 to 4 biological replicates. IC50 and EC50 curves were fitted by the Hill equation with variable slope (Graph Pad Prism 10). Error bars denote ± SEM (for n ≥ 3) or ± range (for n = 2). For the EC50-value of 7a the error of the fitting of the curve is given. Cytotoxicity was determined from biological triplicates; error is shown as SEM.

[3] = tested on: Plasmodium falciparum 3D7 parasites; test: P. falciparum 3D7 culture growth assay in erythrocytes (in vitro activity); assay type: cell-based; conditions: for EC50 / activity at 0.05 µM / activity at 0.1 µM / activity at 0.2 µM: Plasmodium falciparum, 3D7, Erythrocyte, 48 h; for EC50: read-out: EC50 (in vitro, 3D7); for activity at 0.05 µM: 50 nM compound, read-out: % Growth at 50 nM (in vitro, 3D7); for activity at 0.05 µM / activity at 0.1 µM / activity at 0.2 µM: % of untreated control; for activity at 0.1 µM: 100 nM compound, read-out: % Growth at 100 nM (in vitro, 3D7); for activity at 0.2 µM: 200 nM compound, read-out: % Growth at 200 nM (in vitro, 3D7)
Experimental: The parasitemia was measured using an LSR II FACS (BD Biosciences) as described.[34],[35] Growth was assessed as % of untreated control. EC50 curves were plotted using Graph Pad Prism.
as §1, with “EC50-values were determined from 2 to 4 biological replicates.” left out, “For the EC50-value of 7a the error of the fitting of the curve is given.” left out

[4] = 14C-lactate transport, PfFNT wild type, read-out: IC50 (transport, yeast)

| SMILES | Ki [1] [nM] | IC50 [2, 4] [µM] | EC50 ([3]; cultures in erythrocytes) [nM] | Ki ([1]; competition against BH267.meta-DY647 tracer, Cheng Prusoff, read-out: Ki (FCCS, protein)) [nM] | IC50 [2] [µM] | EC50 [3] [nM] | activity at 0.05 µM [3] [%] | activity at 0.1 µM [3] [%] | activity at 0.2 µM [3] [%] | times lower in vitro activity (vs 7e) ([3]; 3D7) |
| --- | --- | --- | --- | --- | --- | --- | --- | --- | --- | --- |
| O=C(/C=C(\O)C(F)(F)c1ccccc1)c1cccnc1 [3a, 4,4-Difluoro-3-hydroxy-4-phenyl-1-(pyridin-3-yl)but-2-en-1-one] | 5840 ± 960 | 1.14 ± 0.2 | 36600 ± 11100 | – | – | – | – | – | – | – |
| O=C(/C=C(\O)C(F)(F)C(F)(F)C(F)(F)F)c1cccnc1 [3b, 4,4,5,5,6,6,6-Heptafluoro-3-hydroxy-1-(pyridin-3-yl)hex-2-en-1-on] | – | – | – | 30 ± 3 | 0.34 ± 0.05 | 1170 ± 30 | – | – | – | – |
| COC(F)(F)C(F)(F)/C(O)=C/C(=O)c1cccnc1 [3c, 4,4,5,5-Tetrafluoro-3-hydroxy-5-methoxy-1-(pyridin-3-yl)pent-2-en-1-one] | 93 ± 2 | 0.31 ± 0.01 | 3390 ± 10 | – | – | – | – | – | – | – |
| O=C(/C=C(\O)C(F)(F)C(F)(F)Cl)c1cccnc1 [3d, 5-Chloro-4,4,5,5-tetrafluoro-3-hydroxy-1-(pyridin-3-yl)pent-2-en-1-one] | 37 ± 21 | 0.18 ± 0.03 | 350 ± 30 | – | – | – | – | – | – | – |
| FC(F)(F)C(F)(F)c1nc(-c2cccnc2)n[nH]1 [4a, 3-[5-(1,1,2,2,2-Pentafluoroethyl)-1H-1,2,4-triazol-3-yl]pyridine] | 1610 ± 298 | 8.44 ± 1.85 | – | – | – | – | – | – | – | – |
| FC(F)(F)C(F)(F)c1cc(-c2cccnc2)n[nH]1 [4b, 3-[5-(1,1,2,2,2-Pentafluoroethyl)-1H-pyrazol-3-yl]pyridine] | > 80000 | ~1000 | – | – | – | – | – | – | – | – |
| O=C(/C=C(\O)C(F)(F)C(F)(F)F)c1ccco1 [5a, 4,4,5,5,5-Pentafluoro-1-(furan-2-yl)-3-hydroxypent-2-en-1-one] | 37 ± 5 | 0.17 ± 0.06 | 1980 ± 40 | – | – | – | – | – | – | – |
| O=C(/C=C(\O)C(F)(F)C(F)(F)F)c1ccoc1 [5b, 4,4,5,5,5-Pentafluoro-1-(furan-3-yl)-3-hydroxypent-2-en-1-one] | 72 ± 6 | 0.1 ± 0.01 | 860 ± 80 | – | – | – | – | – | – | – |
| O=C(/C=C(\O)C(F)(F)C(F)(F)F)c1cccs1 [5c, 4,4,5,5,5-Pentafluoro-3-hydroxy-1-(thiophen-2-yl)pent-2-en-1-one] | 45 ± 25 | 0.11 ± 0.01 | 1920 ± 170 | – | – | – | – | – | – | – |
| O=C(/C=C(\O)C(F)(F)C(F)(F)F)c1ccsc1 [5d, 4,4,5,5,5-Pentafluoro-3-hydroxy-1-(thiophen-3-yl)pent-2-en-1-one] | 85 ± 4 | 0.15 ± 0.01 | 1870 ± 150 | – | – | – | – | – | – | – |
| O=C(/C=C(\O)C(F)(F)C(F)(F)F)c1ccc(NCc2ccccc2)nc1 [7a, 1-[6-(Benzylamino)pyridin-3-yl]-4,4,5,5,5-pentafluoro-3-hydroxypent-2-en-1-one] | 32 ± 15 | 0.51 ± 0.15 | 77.9 | – | – | – | 71 | 32 | 14 | – |
| Nc1ccc(C(=O)/C=C(\O)C(F)(F)C(F)(F)F)cn1 [7b, 1-(6-Aminopyridin-3-yl)-4,4,5,5,5-pentafluoro-3-hydroxypent-2-en-1-one] | 31 ± 6 | 0.19 ± 0.02 | – | – | – | – | 79 | 65 | 29 | at least 3 times |
| CNc1ccc(C(=O)/C=C(\O)C(F)(F)C(F)(F)F)cn1 [7c, 4,4,5,5,5-Pentafluoro-3-hydroxy-1-(6-(methylamino)pyridin-3-yl)pent-2-en-1-one] | 36 ± 12 | 0.13 ± 0.02 | – | – | – | – | 103 | 97 | 85 | – |
| CCNc1ccc(C(=O)/C=C(\O)C(F)(F)C(F)(F)F)cn1 [7d, 1-(6-(Ethylamino)pyridin-3-yl)-4,4,5,5,5-pentafluoro-3-hydroxypent-2-en-1-one] | 21 ± 5 | 0.12 ± 0.01 | – | – | – | – | 45 | 13 | 6 | – |
| CCCCNc1ccc(C(=O)/C=C(\O)C(F)(F)C(F)(F)F)cn1 [7f, 1-(6-(Butylamino)pyridin-3-yl)-4,4,5,5,5-pentafluoro-3-hydroxypent-2-en-1-one] | 27 ± 4 | 0.33 ± 0.01 | – | – | – | – | 25 | 15 | 10 | – |
| CCCCCNc1ccc(C(=O)/C=C(\O)C(F)(F)C(F)(F)F)cn1 [7g, 4,4,5,5,5-Pentafluoro-3-hydroxy-1-(6-(pentylamino)pyridin-3-yl)pent-2-en-1-one] | 13 ± 1 | 0.39 ± 0.03 | – | – | – | – | 37 | 12 | 6 | – |
| COCCCNc1ccc(C(=O)/C=C(\O)C(F)(F)C(F)(F)F)cn1 [7h, 4,4,5,5,5-Pentafluoro-3-hydroxy-1-(6-((3-methoxypropyl)amino)pyridin-3-yl)pent-2-en-1-one] | 55 ± 6 | 0.16 ± 0.01 | – | – | – | – | 65 | – | 17 | – |
| O=C(/C=C(\O)C(F)(F)C(F)(F)F)c1ccc(NCC(F)(F)F)nc1 [7i, 4,4,5,5,5-Pentafluoro-3-hydroxy-1-(6-((2,2,2-trifluoroethyl)amino)pyridin-3-yl)pent-2-en-1-one] | 24 ± 6 | 0.21 ± 0.02 | – | – | – | – | 71 | 38 | 9 | – |
| CC(C)CNc1ccc(C(=O)/C=C(\O)C(F)(F)C(F)(F)F)cn1 [7j, 4,4,5,5,5-Pentafluoro-3-hydroxy-1-(6-(isobutylamino)pyridin-3-yl)pent-2-en-1-one] | 30 ± 3 | 0.28 ± 0.03 | – | – | – | – | 61 | 17 | 11 | – |
| O=C(/C=C(\O)C(F)(F)C(F)(F)F)c1ccc(NC2CC2)nc1 [7k, 1-(6-(Cyclopropylamino)pyridin-3-yl)-4,4,5,5,5-pentafluoro-3-hydroxypent-2-en-1-one] | 10 ± 2 | 0.19 ± 0.02 | – | – | – | – | 44 | 11 | 5 | – |
| O=C(/C=C(\O)C(F)(F)C(F)(F)F)c1ccc(NC2CCC2)nc1 [7l, 1-(6-(Cyclobutylamino)pyridin-3-yl)-4,4,5,5,5-pentafluoro-3-hydroxypent-2-en-1-one] | 23 ± 7 | 0.26 ± 0.03 | – | – | – | – | 59 | 16 | 7 | – |
| O=C(/C=C(\O)C(F)(F)C(F)(F)F)c1ccc(N2CCNCC2)nc1 [7t, 4,4,5,5,5-Pentafluoro-3-hydroxy-1-[6-(piperazin-1-yl)pyridin-3-yl]pent-2-en-1-one] | 858 ± 129 | 17.3 ± 6.5 | – | – | – | – | – | – | – | – |
